Test results: patent US8937065B2, “Compositions and methods for modulating a kinase” (Clevexel Pharma, priority 2011, dated 2015)

Columns and labels:
[1] = test system: NALM-6 cells; test: Proliferation of NALM-6 cells (cell proliferation index, flow cytometry); conditions: Homo sapiens, B cells, outcome-based, read-out: IC50 Proliferation NALM-6 cells (ALL)
Protocol: Cell proliferation of the human B cell precursor leukemia tumor cell line NALM-6 was measured by a cell proliferation index assay. This assay was based on the dilution rate of a fluorescent membrane marker which is directly linked to the cell division. Briefly, the assay was performed by loading the cells with a non-toxic fluorescent phospholipid analog before the seeding. The probe inserts stably into the plasmic membrane and was distributed between daughter cells after division. Flow cytometry analysis of the fluorescent probe was performed directly after the loading of the cells and after 96 hours of culture. The dilution rate of the fluorescent probe at the single cell level was directly correlated to the number of cell divisions. All experiments were performed in triplicate.
Detection of cellular events was performed in triplicate in 96 well-plates after 72 hours of treatment by automated flow cytometry. Non-linear regressions were performed with GraphPad Prism 4.01 software.
Cells were previously thawed and amplified in standard culture conditions (37° C., 5% CO2). NALM-6 cells were cultivated in RPMI 1640+10% inactivated Fetal Bovine Serum. […]
Day 4: After 72 hours of treatment, the cells were analyzed by automated flow cytometry.

[2] = test system: collagen induced arthritis (CIA) in DBA/1 mice; test: Mouse collagen induced arthritis (CIA) slow-progressing disease model; format: in vivo; conditions: 100 mg/kg IP QD, 20 days, mild CIA model, n=10, P<0.05
Protocol: Compounds of the invention were evaluated in mouse collagen induced arthritis (CIA) models. There are several known CIA models as outlined in the table below:
The CIA studies utilized a mild (slow-progressing) disease model. The DBA/1 mice developed collagen induced arthritis (CIA) after immunization with Hooke Kit™ chicken collagen/Complete Freund's Adjuvant (CFA) emulsion (EK-0210), followed by a booster dose of Hooke Kit™ chicken collagen/Incomplete Freund's Adjuvant (IFA) emulsion (EK-0211). Each study used 54 female DBA/1 mice (Taconic Farms model DBA1BO, 9 weeks old) later assigned to […] with 10 mice per group. 4 mice were not immunized nor treated, and they were left as naïve controls group for possible histological analysis. The other 50 mice were treated therapeutically.
One study comprises group 1—Vehicle, group 2—CP-690550, 30 mg/kg PO QD, group 3—R-788, 60 mg/kg PO QD and group 4—compound 7, 100 mg/kg, IP QD. The other study comprises group 1—Vehicle, group 2—compound 7, 15 mg/kg PO QD, group 3—compound 7, 30 mg/kg PO QD and group 4—compound 7, 100 mg/kg, IP QD.
Mice were first immunized with collagen/CFA emulsion on Day 0 after being acclimated for at least 7 days. The procedure of immunization was as follows: A mouse was immobilized using a restrainer. The tail was cleaned with 70% ethanol and the area was wiped dry with sterile gauze. […]

For `O=C(CN1CCOCC1)Nc1cccc(-c2nc(-c3c[nH]c(C(=O)N4CCCC4)c3)cs2)c1` [7A, 2-morpholino-N-(3-(4-(5-(pyrrolidine-1-carbonyl)-1H-pyrrol-3-yl)thiazol-2-yl)phenyl)acetamide], the IC50 [1] was 480 nM and the “CIA score on the last day vs. combined vehicle” value [2] was “reduction in CIA score”.
